Assay results: ChEMBL document CHEMBL6096702, “Discovery of a Novel p38α-MK2 Complex Inhibitor as a Potential Choice for Autoimmune Diseases” (J Med Chem, 2025)
The source made the active and inactive calls. The calls are words filed in the database; no cut-off is given here.

Key:
[1] = Inhibition of N-terminal GST-tagged wildtype human P38alpha (4 to 152 residues) extracted from Escherichia coli/GST-tagged MK2 (unknown origin) assessed as reduction in HSP27 phosphorylation incubated for 2 hrs in presence of ATP and HSP27-FITC peptide by fluorescence polarization based IMAP assay
[2] = Inhibition of N-terminal GST-tagged wildtype human P38alpha (4 to 152 residues) extracted from Escherichia coli/GST-tagged PRAK (unknown origin) assessed as reduction in HSP27 phosphorylation incubated for 2 hrs in presence of ATP and HSP27-FITC peptide by fluorescence polarization based IMAP assay
[3] = AUClast in male Sprague-Dawley rat at 1 mg/kg, iv measured after 24 hrs by LC-MS/MS analysis; format: ADME, organism-based; conditions: in vivo
[4] = Clearance in male Sprague-Dawley rat at 1 mg/kg, iv measured after 24 hrs by LC-MS/MS analysis; format: ADME, organism-based; conditions: in vivo
[5] = Volume of distribution at steady state in male Sprague-Dawley rat at 1 mg/kg, iv measured after 24 hrs by LC-MS/MS analysis; format: ADME, organism-based; conditions: in vivo, read-out: Vdss
[6] = Half-life in male Sprague-Dawley rat at 1 mg/kg, iv measured after 24 hrs by LC-MS/MS analysis; format: ADME, organism-based; conditions: in vivo
[7] = MRT in male Sprague-Dawley rat at 1 mg/kg, iv measured after 24 hrs by LC-MS/MS analysis; format: ADME, organism-based; conditions: in vivo
[8] = Cmax in male Sprague-Dawley rat at 2 mg/kg, po measured after 24 hrs by LC-MS/MS analysis; format: ADME, organism-based; conditions: in vivo
[9] = AUClast in male Sprague-Dawley rat at 2 mg/kg, po measured after 24 hrs by LC-MS/MS analysis; format: ADME, organism-based; conditions: in vivo
[10] = Oral bioavailability in male Sprague-Dawley rat at 2 mg/kg measured after 24 hrs by LC-MS/MS analysis; format: ADME, organism-based; conditions: in vivo
[11] = AUClast in male Beagle dog at 1 mg/kg, iv measured after 24 hrs by LC-MS/MS analysis; format: ADME, organism-based, Canis lupus familiaris; conditions: in vivo
[12] = Clearance in male Beagle dog at 1 mg/kg, iv measured after 24 hrs by LC-MS/MS analysis; format: ADME, organism-based, Canis lupus familiaris; conditions: in vivo
[13] = MRT in male Beagle dog at 1 mg/kg, iv measured after 24 hrs by LC-MS/MS analysis; format: ADME, organism-based, Canis lupus familiaris; conditions: in vivo
[14] = Cmax in male Beagle dog at 2 mg/kg, po measured after 24 hrs by LC-MS/MS analysis; format: ADME, organism-based, Canis lupus familiaris; conditions: in vivo
[15] = AUClast in male Beagle dog at 2 mg/kg, po measured after 24 hrs by LC-MS/MS analysis; format: ADME, organism-based, Canis lupus familiaris; conditions: in vivo
[16] = system: PBMC; test: Inhibition of LPS-induced TNF-alpha production in human PBMC cells at 0.01 to 10000 nM preincubated with compound for 1 hrs followed by LPS addition and measured after 4 hrs; format: functional, cell-based; conditions: dose 0.01-10000 nM, time 5.0 hrs
[17] = system: PBMC; test: Inhibition of LPS-induced IL-8 production in human PBMC cells at 0.01 to 10000 nM preincubated with compound for 1 hrs followed by LPS addition and measured after 4 hrs; format: functional, cell-based; conditions: dose 0.01-10000 nM, time 5.0 hrs
[18] = Inhibition of HSP27 phosphorylation in human THP-1 cells at 0.1 to 1000 nM preincubated with compounds followed by LPS addition for 30 mins; format: cell-based
[19] = Inhibition of P38alpha/GST-tagged ATF2 (unknown origin) assessed as reduction in ATF2 phosphorylation incubated for 30 mins in presence of ATP by TR-FRET assay; parameters: species or system Homo sapiens
[20] = Selectivity ratio of IC50 for inhibition of P38alpha/GST-tagged ATF2 (unknown origin) to IC50 for inhibition of N-terminal GST-tagged wildtype human P38alpha (4 to 152 residues) extracted from Escherichia coli/GST-tagged MK2 (unknown origin)
[21] = target: MAP kinase-activated protein kinase 2 (Homo sapiens) (UniProt P49137); test: Inhibition of LPS-induced MK2 phosphorylation in differentiated human THP-1 macrophage cells at 10 to 10000 nM preincubated with compound for 60 mins followed by LPS addition and measured after 30 mins by Western blot analysis; format: cell-based; conditions: dose 10-10000 nM, time 90.0 min
[22] = target: Cytochrome P450 2D6 (Homo sapiens, UniProt P10635); test: Inhibition of CYP2D6 in human liver microsomes using dextromethorphan as substrate in presence of NADP by LC-MS/MS analysis; format: ADME, Microsome
[23] = target: Cytochrome P450 3A4 (Homo sapiens, UniProt P08684); test: Inhibition of CYP3A4 in human liver microsomes using testosterone as substrate in presence of NADP by LC-MS/MS analysis; format: ADME, Microsome
[24] = target: Cytochrome P450 2C9 (Homo sapiens, UniProt P11712); test: Inhibition of CYP2C9 in human liver microsomes using tolbutamide as substrate in presence of NADP by LC-MS/MS analysis; format: ADME, Microsome
[25] = Half-life in female Lewis rat at 1 mg/kg, po measured after 24 hrs by LC-MS/MS analysis; format: ADME, organism-based; conditions: in vivo
[26] = Cmax in female Lewis rat at 1 mg/kg, po measured after 24 hrs by LC-MS/MS analysis; format: ADME, organism-based; conditions: in vivo
[27] = AUC (0 to 24 hrs) in female Lewis rat at 1 mg/kg, po measured after 24 hrs by LC-MS/MS analysis; format: ADME, organism-based; conditions: in vivo
[28] = Half-life in female Lewis rat at 3 mg/kg, po measured after 24 hrs by LC-MS/MS analysis; format: ADME, organism-based; conditions: in vivo
[29] = Cmax in female Lewis rat at 3 mg/kg, po measured after 24 hrs by LC-MS/MS analysis; format: ADME, organism-based; conditions: in vivo
[30] = AUC (0 to 24 hrs) in female Lewis rat at 3 mg/kg, po measured after 24 hrs by LC-MS/MS analysis; format: ADME, organism-based; conditions: in vivo
[31] = system: Rattus norvegicus; test: Antiarthritic activity in Mycobacterium tuberculosis H37R-induced female Lewis rat model of arthritis at 0.3 mg/kg, po administered twice daily for 15 days starting from day 13 after adjuvant administration; format: functional, organism-based; conditions: time 15.0 day
[32] = system: Rattus norvegicus; test: Antiarthritic activity in Mycobacterium tuberculosis H37R-induced female Lewis rat model of arthritis assessed as reduction in clinical score at 1 mg/kg, po administered twice daily for 15 days starting from day 13 after adjuvant administration; format: functional, organism-based; conditions: time 15.0 day
[33] = system: Rattus norvegicus; test: Antiarthritic activity in Mycobacterium tuberculosis H37R-induced female Lewis rat model of arthritis assessed as reduction in joint swelling by measuring paw volume score at 1 mg/kg, po administered twice daily for 15 days starting from day 13 after adjuvant administration by water displacement method; format: functional, organism-based; conditions: time 15.0 day
[34] = system: Rattus norvegicus; test: Antiarthritic activity in Mycobacterium tuberculosis H37R-induced female Lewis rat model of arthritis assessed as reduction in paw inflammation at 0.3 to 1 mg/kg, po administered twice daily for 15 days starting from day 13 after adjuvant administration by micro-CT analysis; format: functional, organism-based; conditions: dose 0.3-1 mg/kg, time 15.0 day
[35] = system: Rattus norvegicus; test: Antiarthritic activity in Mycobacterium tuberculosis H37R-induced female Lewis rat model of arthritis assessed as inhibition of IL-6 production at 0.3 to 1 mg/kg, po administered twice daily for 15 days starting from day 13 after adjuvant administration; format: functional, organism-based; conditions: dose 0.3-1 mg/kg, time 15.0 day

Sequence of Cytochrome P450 3A4 (P08684 whole entry): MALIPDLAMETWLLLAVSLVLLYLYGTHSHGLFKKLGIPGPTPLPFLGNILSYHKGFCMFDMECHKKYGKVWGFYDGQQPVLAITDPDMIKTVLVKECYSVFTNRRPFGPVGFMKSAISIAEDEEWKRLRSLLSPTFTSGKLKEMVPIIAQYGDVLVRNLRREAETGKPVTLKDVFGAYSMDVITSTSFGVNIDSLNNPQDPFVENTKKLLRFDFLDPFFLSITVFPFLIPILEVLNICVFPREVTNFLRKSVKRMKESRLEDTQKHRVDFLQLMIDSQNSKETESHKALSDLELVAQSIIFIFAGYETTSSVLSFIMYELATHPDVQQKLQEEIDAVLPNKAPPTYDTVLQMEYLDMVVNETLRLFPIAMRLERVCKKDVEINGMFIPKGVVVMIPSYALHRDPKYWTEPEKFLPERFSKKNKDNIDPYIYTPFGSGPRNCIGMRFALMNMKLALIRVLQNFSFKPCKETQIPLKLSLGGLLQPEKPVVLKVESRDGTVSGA
Sequence of Cytochrome P450 2C9 (P11712 whole entry): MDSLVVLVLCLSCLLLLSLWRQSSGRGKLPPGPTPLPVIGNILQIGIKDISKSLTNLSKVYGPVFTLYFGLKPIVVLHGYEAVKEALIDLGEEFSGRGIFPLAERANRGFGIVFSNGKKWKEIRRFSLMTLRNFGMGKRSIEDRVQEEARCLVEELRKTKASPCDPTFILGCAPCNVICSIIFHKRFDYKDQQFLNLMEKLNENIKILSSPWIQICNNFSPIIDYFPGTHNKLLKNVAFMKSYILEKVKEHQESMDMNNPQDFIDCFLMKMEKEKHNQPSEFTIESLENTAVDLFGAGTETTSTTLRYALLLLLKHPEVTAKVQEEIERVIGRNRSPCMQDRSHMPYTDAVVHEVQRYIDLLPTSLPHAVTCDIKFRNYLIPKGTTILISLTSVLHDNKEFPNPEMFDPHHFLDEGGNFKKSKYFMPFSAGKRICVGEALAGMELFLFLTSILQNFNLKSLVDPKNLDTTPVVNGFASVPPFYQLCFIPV
Sequence of MAP kinase-activated protein kinase 2 (Homo sapiens) (P49137 whole entry, looked up): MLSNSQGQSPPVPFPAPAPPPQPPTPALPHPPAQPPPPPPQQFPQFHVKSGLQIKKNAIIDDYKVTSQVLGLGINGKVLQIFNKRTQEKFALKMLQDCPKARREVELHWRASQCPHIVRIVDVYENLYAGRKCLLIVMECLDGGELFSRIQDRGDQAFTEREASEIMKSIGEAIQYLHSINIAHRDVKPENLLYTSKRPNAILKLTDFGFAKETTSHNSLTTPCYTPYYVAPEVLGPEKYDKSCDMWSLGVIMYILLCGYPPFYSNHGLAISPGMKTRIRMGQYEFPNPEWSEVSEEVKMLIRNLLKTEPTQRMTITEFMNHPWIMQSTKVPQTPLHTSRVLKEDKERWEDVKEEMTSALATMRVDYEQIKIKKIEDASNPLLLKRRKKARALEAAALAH
Sequence of Cytochrome P450 2D6 (P10635 whole entry): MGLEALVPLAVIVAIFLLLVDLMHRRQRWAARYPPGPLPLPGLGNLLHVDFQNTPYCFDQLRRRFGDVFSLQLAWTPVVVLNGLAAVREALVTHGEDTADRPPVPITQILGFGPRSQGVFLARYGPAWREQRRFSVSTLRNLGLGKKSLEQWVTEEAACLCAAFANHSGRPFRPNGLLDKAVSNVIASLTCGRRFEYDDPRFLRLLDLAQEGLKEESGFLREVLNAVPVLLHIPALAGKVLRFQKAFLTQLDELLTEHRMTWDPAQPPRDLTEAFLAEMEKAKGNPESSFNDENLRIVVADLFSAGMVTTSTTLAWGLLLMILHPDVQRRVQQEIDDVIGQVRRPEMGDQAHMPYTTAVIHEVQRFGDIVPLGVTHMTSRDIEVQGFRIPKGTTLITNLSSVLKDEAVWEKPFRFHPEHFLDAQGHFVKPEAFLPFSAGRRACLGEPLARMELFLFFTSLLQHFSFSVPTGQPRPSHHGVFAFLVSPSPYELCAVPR

Cc1cnc(-c2ccnc(C(C)(C)O)n2)c(F)c1-n1c(C)cc(O[C@@H](C)c2ncc(F)cc2F)c(C)c1=O showed an IC50 [1] of 5 nM, an IC50 [2] of 5850 nM and an AUC(0-t) at 24 h [3] of 1800 ng·h/mL. For the same compound, the clearance [4] was 9.6 mL/min/kg, the Vd [5] was 1.2 L/kg and the half-life [6] was 2.8 h. It also gave an MRT [7] of 2.2 h, a Cmax [8] of 1140 ng/mL and an AUC(0-t) at 24 h [9] of 4340 ng·h/mL. For the same compound, the bioavailability [10] was 121%, the AUC(0-t) at 24 h [11] was 3750 ng·h/mL and the clearance [12] was 4.5 mL/min/kg. The MRT [13] was 2.9 h, the Cmax [14] was 1120 ng/mL and the AUC(0-t) at 24 h [15] was 5080 ng·h/mL. For the same compound, the inhibition [16] was “Active”, the inhibition [17] was “Active” and the IC50 [18] was 1 nM. The IC50 [19] was 1000 nM, the Ratio IC50 [20] was 263 and the inhibition [21] was “Active”. For the same compound, the IC50 [22] was > 40000 nM, the IC50 [23] was > 40000 nM and the IC50 [24] was > 40000 nM. For the same compound, the half-life [25] was 3.9 h, the Cmax [26] was 299 ng/mL and the AUC(0-t) at 24 h [27] was 2390 ng·h/mL. The half-life [28] was 3.5 h, the Cmax [29] was 916 ng/mL and the AUC(0-t) at 24 h [30] was 6480 ng·h/mL. For the same compound, the Activity [31] was “Active; Significant Clinical Effect Observed”, the Activity [32] was “Active; Comparable To 3 Mg/Kg Of Compound 1” and the Activity [33] was “Active; Significantly Superior Activity Observed Compared To 3 Mg/Kg Of Compound 1”. The Activity [34] was “Active” and the Activity [35] was “Active”.
